The source of these data is US20120142685A1, “ORGANIC COMPOUNDS” (priority 2007, published 2012).

Molecules are shown by their SMILES. Like-named read-outs stand apart in the source and are kept apart here.

One experiment deals with T1, protein kinase D1 (PKD1) (Homo sapiens, UniProt Q15139).
T1 construct: This assay is performed with full length wild-type enzyme that is expressed and purified from Sf9 insect cells; made in house; host or cells: Sf9 insect cells
T1 sequence (Q15139 1-912): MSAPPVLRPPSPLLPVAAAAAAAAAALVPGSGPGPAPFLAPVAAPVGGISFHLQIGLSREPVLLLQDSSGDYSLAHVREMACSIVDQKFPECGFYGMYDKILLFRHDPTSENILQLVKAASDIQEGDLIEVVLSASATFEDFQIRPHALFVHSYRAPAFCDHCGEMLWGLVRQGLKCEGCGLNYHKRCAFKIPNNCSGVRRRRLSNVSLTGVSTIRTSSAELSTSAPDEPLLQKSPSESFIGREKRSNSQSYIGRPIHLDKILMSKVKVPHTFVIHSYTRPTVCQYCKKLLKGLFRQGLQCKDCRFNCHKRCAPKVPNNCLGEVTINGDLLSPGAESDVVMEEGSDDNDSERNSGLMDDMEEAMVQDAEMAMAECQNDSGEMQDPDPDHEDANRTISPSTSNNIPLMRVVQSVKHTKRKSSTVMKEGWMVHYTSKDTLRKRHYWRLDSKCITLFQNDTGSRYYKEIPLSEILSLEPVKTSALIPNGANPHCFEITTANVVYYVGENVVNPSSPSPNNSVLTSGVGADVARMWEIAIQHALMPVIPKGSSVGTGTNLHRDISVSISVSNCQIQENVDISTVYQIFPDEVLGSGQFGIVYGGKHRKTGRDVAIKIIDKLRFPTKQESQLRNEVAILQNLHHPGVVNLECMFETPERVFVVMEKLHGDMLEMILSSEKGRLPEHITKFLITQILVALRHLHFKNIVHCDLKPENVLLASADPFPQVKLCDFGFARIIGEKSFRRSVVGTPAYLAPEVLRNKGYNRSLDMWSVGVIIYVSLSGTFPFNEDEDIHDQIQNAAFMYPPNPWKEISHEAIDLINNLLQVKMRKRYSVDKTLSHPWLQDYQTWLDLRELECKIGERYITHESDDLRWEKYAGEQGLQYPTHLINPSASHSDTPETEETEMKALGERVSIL
Description: PKD1 TR-FRET (LANCE) kinase assay. In kind it is biochemical. The following applies: full length wild-type enzyme, 20 μM ATP; read-out: Inhibitory Activity PKD1. An excerpt:
The assay to measure protein kinase D1 (PKD1) activity is a time-resolved fluorescence resonance transfer (TR-FRET) assay using PerkinElmer's LANCE™ technology. In this case, a biotinylated syntide-2 peptide is used as the substrate in this reaction. Phosphorylation of the syntide-2 substrate is detected by a specific antibody that recognizes the phosphorylated peptide. A second fluorophore, APC, is conjugated to streptavidin that binds the biotinylated syntide-2 peptide. For detection, the europium fluorophore can be excited by 340 nM light which then emits at 615 nM. Therefore, when the europium labeled secondary antibody binds on the phosphorylated peptide, it is brought into close contact with the APC and excites this fluorophore. The APC emission is at 665 nm and the 665 nM:615 nM ratio is a readout of PKD1 activity.
This assay is performed with full length wild-type enzyme that is expressed and purified from Sf9 insect cells. The reaction buffer consists of 35 mM Tris-HCl pH7.5, 5 mM MgCl2, 0.02% Tween-20, 20 μM ATP, 1 mM DTT and 0.2 μg/mL PKD1 enzyme. The enzyme reaction is initiated by the addition of 2 μM syntide-2 peptide substrate and the reaction carried out for 50 minutes at room temperature. The reaction is stopped by a stop/detection buffer consisting of 50 mM EDTA, 0.18 mg/mL rabbit polyclonal anti-phospho syntide-2 antibody, 0.5 nM europium labeled anti-rabbit IgG and 10 nM streptavidin conjugated APC. After a one hour incubation with the stop/detection buffer, the reaction is read on an Envision 2100 Reader using a LANCE™ Eu/APC dual protocol. As described above, a 665 nM:615 nM ratio is determined to measure substrate phosphorylation and enzyme activity. Compounds are typically tested in an 11 point dose response fashion in triplicate for each concentration used. IC50 values are calculated using an Activity Base (IDBS) software program.

For another experiment, the system named is HDAC5 nuclear export. As to the kind of experiment: HDAC5 nuclear export assay in neonatal rat ventricular myocytes (GFP-HDAC5, PGF2α stimulated). The following applies: Ventricular myocyte, 2 h. In kind it is cell-based. The protocol:
Compounds are evaluated in the HDAC5 nuclear […] assay, a 384-well plate-based assay that enables high throughput screening (HTS) to identify small molecules that block agonist-dependent nuclear export of HDAC5. This assay employs the Cellomics High Content Imaging platform (Giuliano & Taylor 1998) and adenovirus encoding green fluorescent protein (GFP) tagged HDAC5. Neonatal rat ventricular myocytes (NRVMs) are infected with GFP-HDAC5 encoding virus and plated on gelatin-coated 384-well dishes. Cells are exposed to compound and stimulated with an prostaglandin (PGF2α), which is a potent stimulus for HDAC5 nuclear export. Following two hours of stimulation, cells are fixed and GFP-HDAC5 localization quantified using the Cellomics system, which provides a read-out of relative fluorescence intensity in the cytoplasmic versus nuclear compartment.

Where [1] appears, read: NRVMs, GFP-HDAC5, PGF2α stimulation two hours, read-out: Inhibitory Activity HDAC.
Setting [2] is: read-out: Inhibitory Activity HDAC (nM).

Regarding `CNc1cc(-c2cc3cnccc3c(NCCCO)n2)ccn1` [Example 1], on protein kinase D1 (PKD1), the IC50 came out at 377 nM.
The same measure, in the same setting: under `CNc1cc(-c2cc3cnccc3c(NC)n2)ccn1` [Example 2, 1-Methylamino-3-(2-methylaminopyridin-4-yl)-[2,6]-naphthyridine] stands 833 nM.
Consider `c1cc2c(N3CCNCC3)nc(-c3ccnc(NC4CCCCC4)c3)cc2cn1` [Example 3, Cyclohexyl-[4-(1-piperazin-1-yl-[2,6]naphthyridin-3-yl)pyridin-2-yl]amine], for which the IC50 on protein kinase D1 (PKD1) turned out to be 0.6 nM; with HDAC5 nuclear export (setting [1]) it was 32 nM.
With `c1ccc(Nc2cc(-c3cc4cnccc4c(N4CCNCC4)n3)ccn2)cc1` [Example 4, Phenyl-[4-(1-piperazin-1-yl-[2,6]naphthyridin-3-yl)pyridin-2-yl]amine], the IC50 on protein kinase D1 (PKD1) was determined as 11 nM; in the experiment on HDAC5 nuclear export (setting [2]) it was 2 nM.
With `OCCNc1nc(-c2ccnc(NC3CCCCC3)c2)cc2cnccc12` [Example 5, 2-[3-(2-Cyclohexylaminopyridin-4-yl)-[2,6]naphthyridin-1-ylamino]ethanol], the IC50 at protein kinase D1 (PKD1) is 382 nM.
Regarding `CC(C)Nc1cc(-c2cc3cnccc3c(NCCO)n2)ccn1` [Example 6, 2-[3-(2-Isopropylaminopyridin-4-yl)-[2,6]naphthyridin-1-ylamino]ethanol], the IC50 at protein kinase D1 (PKD1) was 156 nM.
Regarding `COc1cccc(Nc2cc(-c3cc4cnccc4c(NCCO)n3)ccn2)c1` [Example 7], the values for the IC50 at protein kinase D1 (PKD1) and with HDAC5 nuclear export (setting [1]) were 55 nM and 86 nM, respectively.
As for `CN(C)CCNc1nc(-c2ccnc(NC3CCCCC3)c2)cc2cnccc12` [Example 8, N-[3-(2-Cyclohexylaminopyridin-4-yl)-[2,6]naphthyridin-1-yl]-N′,N′-dimethylethane-1,2-diamine], the IC50 on protein kinase D1 (PKD1) was determined as 55 nM.
Consider `CN(C)CCNc1nc(-c2ccnc(Nc3ccccc3)c2)cc2cnccc12` [Example 9, N,N-Dimethyl-N′-[3-(2-phenylaminopyridin-4-yl)-[2,6]naphthyridin-1-yl]-ethane-1,2-diamine], for which the results for the IC50 at protein kinase D1 (PKD1) and with HDAC5 nuclear export (setting [1]) were 41 nM and 756 nM, respectively.
Consider `NC(=O)C1CCN(c2nc(-c3ccnc(NC4CCCCC4)c3)cc3cnccc23)CC1` [Example 10, 1-[3-(2-Cyclohexylaminopyridin-4-yl)-[2,6]naphthyridin-1-yl]piperidine-4-carboxylic acid amide], for which the IC50 at protein kinase D1 (PKD1) came to 83 nM; in the experiment on HDAC5 nuclear export (setting [1]) it was 203 nM.
On to `CC(=O)N1CCN(c2nc(-c3ccnc(NC4CCCCC4)c3)cc3cnccc23)CC1` [Example 11, 1-{4-[3-(2-Cyclohexylaminopyridin-4-yl)-[2,6]naphthyridin-1-yl]piperazin-1-yl}ethanone], for which the IC50 on protein kinase D1 (PKD1) is 186 nM.
Same read-out and setting: under `CN(C)CC1CCN(c2nc(-c3ccnc(NC4CCCCC4)c3)cc3cnccc23)CC1` [Example 12, Cyclohexyl-{4-[1-(4-dimethylaminomethylpiperidin-1-yl)-[2,6]naphthyridin-3-yl]pyridin-2-yl}amine] stands 207 nM.
For `CN1CCN(c2nc(-c3ccnc(NC4CCCCC4)c3)cc3cnccc23)CC1` [Example 13, Cyclohexyl-{4-[1-(4-methylpiperazin-1-yl)-[2,6]naphthyridin-3-yl]pyridin-2-yl}amine], the figures for the IC50 on protein kinase D1 (PKD1) and in the experiment on HDAC5 nuclear export (setting [2]) were 2 nM and 206 nM, respectively.
For `c1cc2c(NC3CCNC3)nc(-c3ccnc(NC4CCCCC4)c3)cc2cn1` (centres unmarked) [Example 14, [3-(2-Cyclohexylaminopyridin-4-yl)-[2,6]naphthyridin-1-yl]pyrrolidin-3-ylamine], the IC50 stood at 1 nM on protein kinase D1 (PKD1) and 36 nM in the experiment with HDAC5 nuclear export (setting [1]).
Consider `c1cc2c(NC3CCCNC3)nc(-c3ccnc(NC4CCCCC4)c3)cc2cn1` (centres unmarked) [Example 15, [3-(2-Cyclohexylaminopyridin-4-yl)-[2,6]naphthyridin-1-yl]piperidin-3-ylamine], for which the results for the IC50 at protein kinase D1 (PKD1) and in the experiment on HDAC5 nuclear export (setting [2]) were 14 nM and 605 nM, respectively.
With `O=C(NCCO)C1CCN(c2nc(-c3ccnc(NC4CCOCC4)c3)cc3cnccc23)CC1` [Example 16, 1-{3-[2-(Tetrahydropyran-4-ylamino)pyridin-4-yl]-[2,6]naphthyridin-1-yl}piperidine-4-carboxylic acid (2-hydroxyethyl)amide], the IC50 on protein kinase D1 (PKD1) stood at 2 nM; in the experiment on HDAC5 nuclear export (setting [1]), 60 nM.
In the case of `O=C(NC1CC1)C1CCN(c2nc(-c3ccnc(NC4CCOCC4)c3)cc3cnccc23)CC1` [Example 17, 1-{3-[2-(Tetrahydropyran-4-ylamino)pyridin-4-yl]-[2,6]naphthyridin-1-yl}piperidine-4-carboxylic acid cyclopropylamide], the IC50 on protein kinase D1 (PKD1) is 2 nM; in the experiment on HDAC5 nuclear export (setting [2]), 88 nM.
Consider `CCNC(=O)N1CCN(c2nc(-c3ccnc(Nc4ccn(C)n4)c3)cc3cnccc23)CC1` [Example 18, 4-{3-[2-(1-Methyl-1H-pyrazol-3-ylamino)pyridin-4-yl]-[2,6]naphthyridin-1-yl}piperazine-1-carboxylic acid ethylamide], for which the IC50 at protein kinase D1 (PKD1) was determined as 20 nM; with HDAC5 nuclear export (setting [2]), 534 nM.
For `Cn1ccc(Nc2cc(-c3cc4cnccc4c(N4CCC(C(N)=O)CC4)n3)ccn2)n1` [Example 19, 1-{3-[2-(1-Methyl-1H-pyrazol-3-ylamino)pyridin-4-yl]-[2,6]naphthyridin-1-yl}piperidine-4-carboxylic acid amide], the results for the IC50 at protein kinase D1 (PKD1) and in the experiment with HDAC5 nuclear export (setting [1]) were 0.4 nM and 12 nM, respectively.
The like results for `Cn1ccc(Nc2cc(-c3cc4cnccc4c(N4CCC5(CCNC5=O)CC4)n3)ccn2)n1` [Example 20, 8-{3-[2-(1-Methyl-1H-pyrazol-3-ylamino)pyridin-4-yl]-[2,6]naphthyridin-1-yl}-2,8-diaza-spiro[4.5]decan-1-one] were, in that order, 17 nM and 361 nM.
In the case of `COCCNc1cc(-c2cc3cnccc3c(N3CCNCC3)n2)ccn1` [Example 21, (2-Methoxyethyl)-[4-(1-piperazin-1-yl-[2,6]naphthyridin-3-yl)-pyridin-2-yl]amine], the IC50 on protein kinase D1 (PKD1) turned out to be 14 nM; in the experiment with HDAC5 nuclear export (setting [1]) it was 371 nM.
